Experimental data as given in patent US20120276577A1, “Method for Determining the Susceptibility of a Cell Strain to Drugs” (ASSISTANCE PUBLIQUE - HOPITAUX DE PARIS, priority 2009, published 2012).
Like-named read-outs stand apart in the source and are kept apart here.

Assays:
Candida albicans [1] = test: MALDI-TOF MS minimal profile change concentration (MPCC) determination; format: cell-based; conditions: for FCZ MPCCs: 15 h culture, MALDI-TOF MS
Procedure: Fluconazole (FCZ) pure powder (Sigma Chemical CO., Saint-Louis, Mo., USA) was dissolved in pure water. Serial dilutions of drug (concentration ranged from 256 to 0.25 μg/ml), made into RPMI 1640 medium (with glutamine and without bicarbonate, Invitrogen) buffered with MOPS (0.165M) (Sigma Chemical CO., Saint-Louis, Mo., USA) and adjusted to pH 7 with sodium hydroxide (5N), were dispensed in 600 μl aliquots into sterile 24-well flat-bottomed microtiter plates.
After cultivation during 48 h at 37° C. on Sabouraud agar medium, yeasts cells were transferred into RPMI 1640 medium (with glutamine but without bicarbonate, Invitrogen) buffered with MOPS (0.165M) (Sigma Chemical CO., Saint-Louis, Mo., USA), and adjusted to pH 7 with sodium hydroxide (5N). Then, 600 μl of RPMI with yeast (2.106 yeasts/imp were added to 600 μl of RPMI with FCZ into microtiter plates (final FCZ concentration ranged from 128 to 0.125 μg/ml), or in RPMI alone as negative control. Culture was performed in a 30° C. incubator for 15 hours, with continuous agitation.
Yeast extraction was performed as follows: • (1) samples were centrifuged and the supernatant removed before the pellet was washed twice in pure water; • (2) the pellet was then resuspended in 300 μL of pure water, and 900 μL of ethanol were then added; • (3) after another round of centrifugation, 50 μL of 70% formic acid and 50 μL pure acetonitrile were added to the residual pellet and subsequent solution was repeatedly and thoroughly vortexed before a final centrifugation. Each centrifugation was performed at 10 000 rpm for 10 minutes at room temperature.
The supernatant was distributed (0.5 μl droplet) in duplicate on a MALDI AnchorChip sample slide (Bruker-Daltonics, Bremen, Germany), then air-dried. The α-cyano-4-hydroxycinnamic acid (CHCA) matrix (Bruker-Daltonics), prepared at a concentration of 50 mg/ml in 50% acetonitrile and 50% water with 0.1% TFA, was sonicated for 5 min before being spotted (0.5 μl) over the dried sample. A DH5a Escherichia coil protein extract (Bruker-Daltonics) was deposited on the calibration spot of the Anchorchip for external calibration. MALDI analysis were performed on a Bruker Autoflex I MALDI TOF mass spectrometer with a nitrogen laser (337 nm) operating in linear mode with delayed extraction (260 ns) at 20 kV accelerating voltage. Each spectrum was automatically collected in the positive ion mode as an average of 500 laser shots (50 laser shots at 10 different spot positions). Laser energy was set just above the threshold for ion production. Mass range between 3,000 and 20,000 m/z (ratio mass/charge) was selected to collect the signals with the AutoXecute tool of flexControl acquisition software (Version 2.4; Bruker-Daltonics). Only peaks with a signal/noise ratio >3 were considered. […] For each cultivation condition, we collected mass spectra from 3 biological replicates and 2 technical replicates.
Data obtained from the flex control acquisition software were a set of lists of mass/charge peaks and corresponding intensities, one list for each spectrum. For each FCZ concentration (11 FCZ concentrations and without FCZ), 6 spectra, obtained from 3 biological replicates tested in duplicate, were collected, so the whole initial set of data consisted of 72 spectra.
Alignment was performed using a method based on the mean spectrum, using an approach similar to that recommended by Coombes et al. (Coombes K R, Baggerly K A, and Morris J S: Pre-Processing Mass Spectrometry Data. Fundamentals of Data Mining in Genomics and Proteomics, W Dubitzky, M Granzow, and D Berrar, eds. Kluwer, Boston, 79-99 (2007)).
The mean spectrum of the 72 spots was computed, a simple peak detection algorithm was run on the mean spectrum, and a selection of the final peak locations was based on the mean intensity of the peak. For each spectrum, the peaks corresponding to the final peak locations were retained for the statistical analysis. […]

Candida albicans [2] = conditions: CLSI, cited from earlier work
[3] = C. albicans clinical isolate DSY281 (group A)
[4] = C. albicans clinical isolate DSY284 (group A)
[5] = C. albicans clinical isolate DSY289 (group F)
[6] = C. albicans clinical isolate DSY290 (group G)
[7] = C. albicans clinical isolate DSY292 (group G)
[8] = C. albicans clinical isolate DSY 294 (group B)
[9] = C. albicans clinical isolate DSY296 (group B)
[10] = C. albicans clinical isolate DSY347 (group F)
[11] = C. albicans clinical isolate DSY544 (group C)
[12] = C. albicans clinical isolate DSY2260 (group D)
[13] = C. albicans clinical isolate DSY2262 (group D)
[14] = C. albicans clinical isolate DSY2284 (group H)
[15] = C. albicans clinical isolate DSY2285 (group H)
[16] = C. albicans clinical isolate DSY2321 (group E)
[17] = C. albicans clinical isolate DSY2322 (group E)
[18] = C. albicans clinical isolate DYS775 (group C)
[19] = C. albicans reference strain ATCC 90028

OC(Cn1cncn1)(Cn1cncn1)c1ccc(F)cc1F [FCZ, Fluconazole]
FCZ MPCCs (Candida albicans [1]; [3]): 0.5 µg/mL | FCZ MPCCs (Candida albicans [1]; [4]): 8 µg/mL | FCZ MPCCs (Candida albicans [1]; [5]): 128 µg/mL | FCZ MPCCs (Candida albicans [1]; [6]): 0.25 µg/mL | FCZ MPCCs (Candida albicans [1]; [7]): 128 µg/mL | FCZ MPCCs (Candida albicans [1]; [8]): 0.25 µg/mL | FCZ MPCCs (Candida albicans [1]; [9]): 128 µg/mL | FCZ MPCCs (Candida albicans [1]; [10]): 0.125 µg/mL | FCZ MPCCs (Candida albicans [1]; [11]): 0.25 µg/mL | FCZ MPCCs (Candida albicans [1]; [12]): 4 µg/mL | FCZ MPCCs (Candida albicans [1]; [13]): 32 µg/mL | FCZ MPCCs (Candida albicans [1]; [14]): 0.5 µg/mL | FCZ MPCCs (Candida albicans [1]; [15]): 16 µg/mL | FCZ MPCCs (Candida albicans [1]; [16]): 0.5 µg/mL | FCZ MPCCs (Candida albicans [1]; [17]): 16 µg/mL | FCZ MPCCs (Candida albicans [1]; [18]): 64 µg/mL | FCZ MPCCs (Candida albicans [1]; [19]): 0.25 µg/mL | mass spectrometry spectra compared with the control culture (Candida albicans [1]; DSY2260 C. albicans, cultures exposed up to 2 μg/ml FCZ, 15 h): indistinguishable | FCZ MICs (Candida albicans [2]; [3]): 1 µg/mL | FCZ MICs (Candida albicans [2]; [4]): 32 µg/mL | FCZ MICs (Candida albicans [2]; [5]): 128 µg/mL | FCZ MICs (Candida albicans [2]; [6]): 0.5 µg/mL | FCZ MICs (Candida albicans [2]; [7]): 128 µg/mL | FCZ MICs (Candida albicans [2]; [8]): 0.25 µg/mL | FCZ MICs (Candida albicans [2]; [9]): 128 µg/mL | FCZ MICs (Candida albicans [2]; [10]): 0.25 µg/mL | FCZ MICs (Candida albicans [2]; [11]): 0.5 µg/mL | FCZ MICs (Candida albicans [2]; [12]): 8 µg/mL | FCZ MICs (Candida albicans [2]; [13]): 64 µg/mL | FCZ MICs (Candida albicans [2]; [14]): 0.25 µg/mL | FCZ MICs (Candida albicans [2]; [15]): 16 µg/mL | FCZ MICs (Candida albicans [2]; [16]): 0.25 µg/mL | FCZ MICs (Candida albicans [2]; [17]): 16 µg/mL | FCZ MICs (Candida albicans [2]; [18]): 128 µg/mL | FCZ MICs (Candida albicans [2]; [19]): 0.25 µg/mL
